Experimental data: patent US6358885B1, “Substituted phenylheterocyclic herbicides” (Mississippi State University, priority 1992, dated 2002)

Tests used:
blackgrass = experiment: Test B preemergence/postemergence greenhouse plant response rating 0 to 10; assay type: in vivo, Alopecurus myosuroides; conditions: for Plant response rating, Blackgrass: 0 to 10 scale
Method in brief: (§1)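 Both application timings were run together: seeds got compound preemergence, and established seedlings (two to eighteen cm) got it postemergence. Non-phytotoxic solvent carried the chemical. Ratings are visual, versus controls, at twelve to sixteen days.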

pigweed = experiment: Test C preemergence/postemergence greenhouse plant response rating 0 to 100; assay type: in vivo, Amaranthusretroflexus; conditions: for Plant response rating Pigweed: 0 to 100 scale
Source text: (§2) The compounds evaluated in this test were formulated in a non-phytoxic solvent and applied to the soil surface before plant seedlings emerged (preemergence application), to water that covered the soil surface (flood application), and to plants that were in the one-to-four leaf stage (postemergence application). A sandy loam soil was used for the preemergence and postemergence tests, while a silt loam soil was used in the flood test. Water depth was approximately 2.5 cm for the flood test and was maintained at this level for the duration of the test. Plant species in the preemergence and postemergence tests consisted of barley (Hordeum vulgare), bedstraw (Galium aparine), blackgrass (Alopecurus myosuroides), chickweed (Stellaria media), corn (Zea mays), cotton (Gossypium hirsutum), crabgrass (Digitaria sanguinalis), downy brome (Bromus tectorum), giant foxtail (Setaria faberii), lambsquarters (Chenopodium album), morningglory (Ipomoea hederacea), pigweed ([…]), rape (Brassica napus), ryegrass (Lolium multiflorum), sorghum (Sorghum bicolor), soybean (Glycine max), speedwell (Veronica persica), sugar beet (Beta vulgaris), velvetleaf (Abutilon theophrasti), wheat (Triticum aestivum), wild buckwheat (Polygonum convolvulus), and wild oat (Avena fatua). All plant species were planted one day before application of the compound for the preemergence portion-of this test. Plantings of these species were adjusted to produce plants of appropriate size for the post-emergence portion of the test. […] All plant species were grown using normal greenhouse practices. Visual evaluations of injury expressed on treated plants, when compared to untreated controls, were recorded approximately fourteen to twenty one days after application of the test compound. […] A dash (-) response means no test result.

ryegrass = experiment: as above; assay type: in vivo, Lolium multiflorum; conditions: for Plant response rating Ryegrass: 0 to 100 scale
Source text: as §2

wild buckwheat = experiment: as above; assay type: in vivo, Polygonum convolvulus; conditions: for Plant response rating, Wild buckwheat: 0 to 100 scale
Source text: as §2

giant foxtail = experiment: Test B preemergence/postemergence greenhouse plant response rating 0 to 10; assay type: in vivo, Setaria faberii; conditions: 0 to 10 scale
Method in brief: as §1

soybean [1] = experiment: as above; assay type: in vivo, Glycine max; conditions: 0 to 10 scale
Method in brief: as §1

lambsquarters [2] = experiment: Test C preemergence/postemergence greenhouse plant response rating 0 to 100; assay type: in vivo, Chenopodium album; conditions: for Plant response rating Lambsquarters: 0 to 100 scale
Source text: as §2

velvetleaf = experiment: Test B preemergence/postemergence greenhouse plant response rating 0 to 10; assay type: in vivo, Abutilon theophrasti; conditions: 0 to 10 scale
Method in brief: as §1

cheatgrass = experiment: as above; assay type: in vivo, Bromus secalinus; conditions: for Plant response rating, Cheatgrass: 0 to 10 scale
Method in brief: as §1

lambsquarters [3] = experiment: as above; assay type: in vivo, Chenopodium album; conditions: 0 to 10 scale
Method in brief: as §1

purple nutsedge = experiment: as above; assay type: in vivo, Cyperus rotundus; conditions: 0 to 10 scale
Method in brief: as §1

soybean [4] = experiment: Test C preemergence/postemergence greenhouse plant response rating 0 to 100; assay type: in vivo, Glycine max; conditions: for Plant response rating, Soybean: 0 to 100 scale
Source text: as §2

chickweed = experiment: as above; assay type: in vivo, Stellaria media; conditions: for Plant response rating, Chickweed: 0 to 100 scale
Source text: as §2

rape = experiment: Test B preemergence/postemergence greenhouse plant response rating 0 to 10; assay type: in vivo, Brassica napus; conditions: 0 to 10 scale
Method in brief: as §1

barley [5] = experiment: Test C preemergence/postemergence greenhouse plant response rating 0 to 100; assay type: in vivo, Hordeum vulgare; conditions: for Plant response rating Barley Igri: 0 to 100 scale
Source text: as §2

barley [6] = experiment: Test B preemergence/postemergence greenhouse plant response rating 0 to 10; assay type: in vivo, Hordeum vulgare; conditions: for Plant response rating, Barley: 0 to 10 scale
Method in brief: as §1

sugar beet = experiment: Test C preemergence/postemergence greenhouse plant response rating 0 to 100; assay type: in vivo, Beta vulgaris; conditions: for Plant response rating, Sugar beet: 0 to 100 scale
Source text: as §2

crabgrass = experiment: Test B preemergence/postemergence greenhouse plant response rating 0 to 10; assay type: in vivo, Digitaria spp.; conditions: for Plant response rating, Crabgrass: 0 to 10 scale
Method in brief: as §1

C#CCOc1cc(-c2nn3c(c2Br)CCCC3)c(F)cc1Cl [Compound 26]
Plant response rating (0 to 10 scale), Blackgrass (blackgrass; POSTEMERGENCE, Rate 50 g/ha): 4
Plant response rating, Blackgrass (blackgrass; POSTEMERGENCE, Rate 200 g/ha): 5
Plant response rating, Blackgrass (blackgrass; PREEMERGENCE, Rate 50 g/ha): 4
Plant response rating, Blackgrass (blackgrass; Rate 200 g/ha, PREEMERGENCE): 6
Plant response rating Pigweed (pigweed; POSTEMERGENCE, 62 g/ha): 100
Plant response rating Pigweed (pigweed; POSTEMERGENCE, 250 g/ha): 100
Plant response rating (0 to 100), Pigweed (pigweed; POSTEMERGENCE, Rate 4 g/ha): 100
Plant response rating Pigweed (pigweed; PREEMERGENCE, 62 g/ha): 100
Plant response rating Pigweed (pigweed; PREEMERGENCE, 250 g/ha): 100
Plant response rating (0 to 100), Pigweed (pigweed; PREEMERGENCE, Rate 4 g/ha): 30
Plant response rating (0 to 100), Pigweed (pigweed; Rate 16 g/ha, POSTEMERGENCE): 100
Plant response rating (0 to 100), Pigweed (pigweed; Rate 16 g/ha, PREEMERGENCE): 100
Plant response rating Ryegrass (ryegrass; POSTEMERGENCE, 62 g/ha): 30
Plant response rating Ryegrass (ryegrass; POSTEMERGENCE, 250 g/ha): 50
Plant response rating (0 to 100), Ryegrass (ryegrass; POSTEMERGENCE, Rate 4 g/ha): 20
Plant response rating Ryegrass (ryegrass; PREEMERGENCE, 62 g/ha): 0
Plant response rating Ryegrass (ryegrass; PREEMERGENCE, 250 g/ha): 20
Plant response rating (0 to 100), Ryegrass (ryegrass; PREEMERGENCE, Rate 4 g/ha): 0
Plant response rating (0 to 100), Ryegrass (ryegrass; Rate 16 g/ha, POSTEMERGENCE): 20
Plant response rating (0 to 100), Ryegrass (ryegrass; Rate 16 g/ha, PREEMERGENCE): 0
Plant response rating, Wild buckwheat (wild buckwheat; POSTEMERGENCE, 62 g/ha): 100
Plant response rating, Wild buckwheat (wild buckwheat; POSTEMERGENCE, 250 g/ha): 100
Plant response rating (0 to 100), Wild buckwheat (wild buckwheat; POSTEMERGENCE, Rate 4 g/ha): 50
Plant response rating, Wild buckwheat (wild buckwheat; PREEMERGENCE, 250 g/ha): 100
Plant response rating (0 to 100), Wild buckwheat (wild buckwheat; PREEMERGENCE, Rate 4 g/ha): 20
Plant response rating (0 to 100), Wild buckwheat (wild buckwheat; Rate 16 g/ha, POSTEMERGENCE): 80
Plant response rating (0 to 100), Wild buckwheat (wild buckwheat; Rate 16 g/ha, PREEMERGENCE): 80
Plant response rating, Giant foxtail (giant foxtail; POSTEMERGENCE, Rate 50 g/ha): 4
Plant response rating, Giant foxtail (giant foxtail; POSTEMERGENCE, Rate 200 g/ha): 6
Plant response rating, Giant foxtail (giant foxtail; PREEMERGENCE, Rate 50 g/ha): 6
Plant response rating, Giant foxtail (giant foxtail; Rate 200 g/ha, PREEMERGENCE): 10
Plant response rating, Soybean (soybean [1]; POSTEMERGENCE, Rate 50 g/ha): 8
Plant response rating, Soybean (soybean [1]; POSTEMERGENCE, Rate 200 g/ha): 9
Plant response rating, Soybean (soybean [1]; PREEMERGENCE, Rate 50 g/ha): 1
Plant response rating, Soybean (soybean [1]; Rate 200 g/ha, PREEMERGENCE): 3
Plant response rating Lambsquarters (lambsquarters [2]; POSTEMERGENCE, 62 g/ha): 100
Plant response rating Lambsquarters (lambsquarters [2]; POSTEMERGENCE, 250 g/ha): 100
Plant response rating (0 to 100), Lambsquarters (lambsquarters [2]; POSTEMERGENCE, Rate 4 g/ha): 80
Plant response rating Lambsquarters (lambsquarters [2]; PREEMERGENCE, 62 g/ha): 100
Plant response rating Lambsquarters (lambsquarters [2]; PREEMERGENCE, 250 g/ha): 100
Plant response rating (0 to 100), Lambsquarters (lambsquarters [2]; PREEMERGENCE, Rate 4 g/ha): 80
Plant response rating (0 to 100), Lambsquarters (lambsquarters [2]; Rate 16 g/ha, POSTEMERGENCE): 80
Plant response rating (0 to 100), Lambsquarters (lambsquarters [2]; Rate 16 g/ha, PREEMERGENCE): 100
Plant response rating, Velvetleaf (velvetleaf; POSTEMERGENCE, Rate 50 g/ha): 10
Plant response rating, Velvetleaf (velvetleaf; POSTEMERGENCE, Rate 200 g/ha): 10
Plant response rating, Velvetleaf (velvetleaf; PREEMERGENCE, Rate 50 g/ha): 10
Plant response rating, Velvetleaf (velvetleaf; Rate 200 g/ha, PREEMERGENCE): 10
Plant response rating (0 to 10 scale), Cheatgrass (cheatgrass; POSTEMERGENCE, Rate 50 g/ha): 5
Plant response rating, Cheatgrass (cheatgrass; POSTEMERGENCE, Rate 200 g/ha): 7
Plant response rating, Cheatgrass (cheatgrass; PREEMERGENCE, Rate 50 g/ha): 6
Plant response rating, Cheatgrass (cheatgrass; Rate 200 g/ha, PREEMERGENCE): 7
Plant response rating, Lambsquarter (lambsquarters [3]; POSTEMERGENCE, Rate 50 g/ha): 10
Plant response rating, Lambsquarter (lambsquarters [3]; POSTEMERGENCE, Rate 200 g/ha): 10
Plant response rating, Lambsquarter (lambsquarters [3]; PREEMERGENCE, Rate 50 g/ha): 10
Plant response rating, Lambsquarter (lambsquarters [3]; Rate 200 g/ha, PREEMERGENCE): 10
Plant response rating, Nutsedge (purple nutsedge; POSTEMERGENCE, Rate 200 g/ha): 4
Plant response rating, Nutsedge (purple nutsedge; PREEMERGENCE, Rate 50 g/ha): 0
Plant response rating, Nutsedge (purple nutsedge; Rate 200 g/ha, PREEMERGENCE): 0
Plant response rating, Soybean (soybean [4]; POSTEMERGENCE, 62 g/ha): 60
Plant response rating, Soybean (soybean [4]; POSTEMERGENCE, 250 g/ha): 60
Plant response rating (0 to 100), Soybean (soybean [4]; POSTEMERGENCE, Rate 4 g/ha): 20
Plant response rating, Soybean (soybean [4]; PREEMERGENCE, 250 g/ha): 100
Plant response rating (0 to 100), Soybean (soybean [4]; PREEMERGENCE, Rate 4 g/ha): 0
Plant response rating (0 to 100), Soybean (soybean [4]; Rate 16 g/ha, POSTEMERGENCE): 50
Plant response rating (0 to 100), Soybean (soybean [4]; Rate 16 g/ha, PREEMERGENCE): 0
Plant response rating, Chickweed (chickweed; POSTEMERGENCE, 62 g/ha): 100
Plant response rating, Chickweed (chickweed; POSTEMERGENCE, 250 g/ha): 100
Plant response rating, Chickweed (chickweed; PREEMERGENCE, 62 g/ha): 100
Plant response rating, Chickweed (chickweed; PREEMERGENCE, 250 g/ha): 100
Plant response rating (0 to 100), Chickweed (chickweed; PREEMERGENCE, Rate 4 g/ha): 50
Plant response rating (0 to 100), Chickweed (chickweed; Rate 4 g/ha, POSTEMERGENCE): 50
Plant response rating (0 to 100), Chickweed (chickweed; Rate 16 g/ha, POSTEMERGENCE): 80
Plant response rating (0 to 100), Chickweed (chickweed; Rate 16 g/ha, PREEMERGENCE): 50
Plant response rating, Rape (rape; POSTEMERGENCE, Rate 50 g/ha): 9
Plant response rating, Rape (rape; POSTEMERGENCE, Rate 200 g/ha): 10
Plant response rating, Rape (rape; PREEMERGENCE, Rate 50 g/ha): 3
Plant response rating, Rape (rape; Rate 200 g/ha, PREEMERGENCE): 10
Plant response rating Barley Igri (barley [5]; POSTEMERGENCE, 62 g/ha): 40
Plant response rating Barley Igri (barley [5]; POSTEMERGENCE, 250 g/ha): 50
Plant response rating Barley Igri (barley [5]; PREEMERGENCE, 62 g/ha): 0
Plant response rating Barley Igri (barley [5]; PREEMERGENCE, 250 g/ha): 20
Plant response rating (0 to 100), Barley Igri (barley [5]; PREEMERGENCE, Rate 4 g/ha): 0
Plant response rating (0 to 100), Barley Igri (barley [5]; Rate 4 g/ha, POSTEMERGENCE): 20
Plant response rating (0 to 100), Barley Igri (barley [5]; Rate 16 g/ha, POSTEMERGENCE): 20
Plant response rating (0 to 100), Barley Igri (barley [5]; Rate 16 g/ha, PREEMERGENCE): 0
Plant response rating (0 to 10 scale), Barley (barley [6]; POSTEMERGENCE, Rate 50 g/ha): 4
Plant response rating, Barley (barley [6]; POSTEMERGENCE, Rate 200 g/ha): 6
Plant response rating, Barley (barley [6]; PREEMERGENCE, Rate 50 g/ha): 0
Plant response rating, Barley (barley [6]; Rate 200 g/ha, PREEMERGENCE): 1
Plant response rating, Sugar beet (sugar beet; POSTEMERGENCE, 62 g/ha): 100
Plant response rating, Sugar beet (sugar beet; POSTEMERGENCE, 250 g/ha): 100
Plant response rating (0 to 100), Sugar beet (sugar beet; POSTEMERGENCE, Rate 4 g/ha): 100
Plant response rating, Sugar beet (sugar beet; PREEMERGENCE, 250 g/ha): 100
Plant response rating (0 to 100), Sugar beet (sugar beet; PREEMERGENCE, Rate 4 g/ha): 0
Plant response rating (0 to 100), Sugar beet (sugar beet; Rate 16 g/ha, POSTEMERGENCE): 100
Plant response rating (0 to 100), Sugar beet (sugar beet; Rate 16 g/ha, PREEMERGENCE): 20
Plant response rating (0 to 10 scale), Crabgrass (crabgrass; POSTEMERGENCE, Rate 50 g/ha): 2
Plant response rating, Crabgrass (crabgrass; POSTEMERGENCE, Rate 200 g/ha): 6
Plant response rating, Crabgrass (crabgrass; PREEMERGENCE, Rate 50 g/ha): 5
Plant response rating, Crabgrass (crabgrass; Rate 200 g/ha, PREEMERGENCE): 9
